Laboratory results reported in patent US6958215B1, “Methods and compositions for inhibition of RNA splicing” (priority 1999, dated 2005).
pKd: −log10 of the molar value. [np] = N3'→P5' phosphoramidate internucleoside linkage; d = 2'-deoxy (DNA); r = 2'-OH (RNA)

Tests used:
[1] = test system: C-10/1x ribozyme; experiment: Binding to C-10/1x ribozyme, competitive band-shift native electrophoresis; parameters: species or system Candida albicans; conditions: H15Mg buffer; for Binding to C-10/1x ΔG*37,C-10/1x: calculated from Kd, T = 310 K; for Tertiary Stability BETI (binding enhanced by tertiary interactions): calculated using Kd values; for Tertiary Stability ααG°37,BETI: difference in ΔG°37 for binding to C-10/1x and r(GGAGGC)
Protocol: C-10/1x is a Candida albicans rRNA Group I ribozyme. Dissociation constants for 5′ exon oligonucleotide mimics which bind to the C-10/1x ribozyme were measured by competitive band-shift native electrophoresis using methods described in Testa et al., Biochemistry 37:9379-9385 (1998). The results for a variety of oligonucleotides complementary or containing a one base mismatch to the C-10/1x 5′ exon guide sequence are shown in Table 2.

[2] = test system: r(GGAGGC); experiment: Base-pairing to r(GGAGGC), thermodynamic melts; format: binding; conditions: H15Mg buffer; for pKd: calculated from ΔG°37, read-out: Binding to r(GGAGGC) Kd,B.P.
[3] = test system: P. carinii rRNA precursor (P-h) containing a Group I intron; experiment: Inhibition of self-splicing, internally radiolabeled P-h precursor, gel assay; format: biochemical, Pneumocystis carinii; conditions: 2 mM Mg2+, up to 30 μM oligonucleotide, 1 mM pG
[4] = test system: P. carinii rRNA precursor (P-h) containing a Group I intron; experiment: Fate of 5′ end radiolabeled hexamer with unlabeled P-h precursor (trans-splicing); format: biochemical, Pneumocystis carinii; conditions: 0, 2, 3, or 15 mM Mg2+
Protocol: The fate of the hexamers, (dA)n(dT)n(dG)n(dA)n(dC)n(rU) [Seq. ID No:1] and (dC)n(dA)n(dG)n(dT)n(dA)n(rU) [Seq. ID No:5], was also analyzed using radiolabeled hexamer and unlabeled precursor in the presence and absence of pG colactor. Approximately 300 nM unlabeled P-h precursor was reannealed at 55° C. in 3 μL of the appropriate buffer for 5 min and slow cooled to 37° C. A 3 μL solution of […] 5′ end radiolabeled hexamer in the same buffer at 37° C. was added and the reaction was allowed to proceed for 1 h. The reaction was quenched by the addition of 6 μL of 2× stop buffer and the reactants and products were separated on a 10% polyacrylamide, 8 M urea gel. The gel was dried under vacuum and the bands quantified with a Molecular Dynamics phosphorimager.

[5] = test system: P. carinii rRNA precursor (P-h) containing a Group I intron; experiment: Oligonucleotide concentration dependence of cis- and trans-splicing, 3′ end radiolabeled P-h precursor; format: biochemical, Pneumocystis carinii; conditions: up to 30 μM oligonucleotide, 4 mM Mg2+

| Substance | pKd [1] | Binding to C-10/1x ΔG*37,C-10/1x [1] | Tertiary Stability BETI (binding enhanced by tertiary interactions) [1] | Tertiary Stability ααG°37,BETI [1] | Binding to r(GGAGGC) ΔG°37,B.P. [2] | pKd [2] | increase in the 5′ exon-intron product [3] | reactivity of 5′ radiolabeled hexamer with unlabeled precursor [4] | formation of trans-spliced product [5] |
| --- | --- | --- | --- | --- | --- | --- | --- | --- | --- |
| r(GCCUCU) [reference compound] | 9.15 | -13.0 kcal/mol | 1500 | -4.5 kcal/mol | -8.5 kcal/mol | 4.00 | – | – | – |
| r(GACUCU) [reference compound] | 8.16 | -11.6 kcal/mol | 4800000 | -9.5 kcal/mol | -2.1 kcal/mol | 3.22 | – | – | – |
| (dC)n(dA)n(dG)n(dT)n(dA)n(rU) (CAGTAU; sugars from the 5' end d5 r1, all [np], methylation of C not given here) [reference compound] | – | – | – | – | – | – | does not occur | not reactive | not formed |
